Where no end group is shown, it is not given here.
Assay: Peptide quantification by mass spectrometry after incubation in cell-free supernatant of Rhodanobacter R179
Type: in vitro ADME
Details: axenic XVM2 medium, 1h, 1 µM AtPep1, NHS-acetate modified, LC-MS [M+2H]
Procedure: Elicitors were also supplemented into the medium prior to solidification at a final concentration of 1 µM. The flg22 ([…]) and AtPep1 ([…]) peptides were synthesized by EZbiolab. elf18^R179 (Ac-[…]) and elf18 (Ac-[…]) were synthesized by GenScript and EZbiolab, respectively. For inoculation with the bacterial supernatant, bacteria were cultivated overnight in XVM2 minimal medium (20 mM NaCl, 10 mM (NH4)2SO4, 5 mM MgSO4, 1 mM CaCl2, 0.16 mM KH2PO4, 0.32 mM K2HPO4, 0.01 mM FeSO4, 10 mM fructose, 10 mM sucrose, 0.03% Casamino acids, pH 6.7)[76] to a final concentration of OD600 = 0.4. Bacteria were pelleted by centrifugation (11,600 g, 2 min), and the supernatant was sterile-filtered using filter units with MF-Millipore membrane (0.22 µm; Millex). The supernatant was incubated in boiling water for 30 min for heat treatment. Then, 25 ml of 1× MS with 20 g l^−1 Bacto Agar was mixed with 25 ml of supernatant prior to medium solidification and poured into square petri dishes. Sterilized seeds were placed on solidified agar in square petri dishes and vertically incubated for 14 days.
Bacterial supernatants were prepared as described in ‘Agar-based cultivation of axenic plants and co-cultivation with bacteria, bacterial supernatants and elicitors’. Here, additionally, the peptides dRGF1 (DYSNPGHHP-Hyp-RHN) and PSY1 (D-Y(SO3H)-[…]-Hyp-Hyp-S) synthesized by Scilight Peptide were incubated for 1 h with 1 µM of peptides in a plant cultivation light chamber (day-light condition; see ‘Plant cultivation conditions’), and the samples were frozen at −20 °C until further processing. For the investigation of AtPep1 degradation, the AtPep1 peptide was first modified by acetylation (six to seven times). To this end, 100-µl aliquots of peptides were treated with 10 µl of NHS acetate solution (1 M NHS acetate in 50% ACN/PBS) and incubated for 30 min with shaking. The reaction was quenched by the addition of 100 µl of 100 mM Tris-HCl (pH 8.5) and incubated for 10 min. For comparison of the non-acetylated peptides with the above-described modified AtPep1 peptides, aliquots of the non-acetylated peptides were processed as described above, but without the modifying NHS reaction. To this end, 100-µl aliquots of the sample were mixed with 100 µl of PBS buffer (137 mM NaCl, 2.7 mM KCl, 10 mM Na2HPO4, 1.8 mM KH2PO4; pH 7.4). The samples were then further diluted with 100 µl of 100 mM Tris-HCl (pH 8.5) and incubated for 10 min. All samples were acidified with 5 µl of TFA and desalted using StageTips with C18 Empore disk membranes (3M)[109]. The samples were dried in a vacuum evaporator and dissolved in 10 µl of 2% ACN (0.1% TFA for analysis).
The samples were analysed using an EASY-nLC 1200 (Thermo Fisher) coupled to a QExactive Plus mass spectrometer (Thermo Fisher). Peptides were separated on 16-cm frit-less silica emitters (New Objective, 75 µm inner diameter), packed in-house with reversed-phase ReproSil-Pur C18 AQ 1.9 µm resin (Dr. Maisch). Peptides were loaded on the column and eluted for 50 min using a segmented linear gradient of 5% to 95% solvent B (0 min, 5% B; 0–5 min, 15% B; 5–35 min, 50% B; 35–45 min, 95% B; 45–50 min, 95% B) (solvent A: 0% ACN, 0.1% FA; solvent B: 80% ACN, 0.1% FA) at a flow rate of 300 nl min^−1. Mass spectra were acquired in data-dependent acquisition mode with a TOP10 method. Mass spectrometry spectra were acquired in the Orbitrap analyser with a mass range of 300–1,500 m/z at a resolution of 70,000 full width at half maximum (FWHM) and a target value of 3 × 10^6 ions. Precursors were selected with an isolation window of 1.3 m/z. Higher-energy collision dissociation (HCD) fragmentation was performed at a normalized collision energy of 25. Tandem mass spectrometry (MS/MS) spectra were acquired with a target value of 5 × 10^5 ions at a resolution of 17,500 FWHM, a maximum injection time of 85 ms and a fixed first mass of 100 m/z. […]

ATKVKAKQRGKEKVSSGRPGQHN [AtPep1]
Total_area MS1 of identified AtPep1 cleavage product (acetylated […]) (replicate 2): 0.00E+00 | Total_area MS1 of identified AtPep1 cleavage product (acetylated […]) (replicate 3): 0.00E+00

— article PMC11928319 (Nature Plants, 2025)
